Results: patent publication US4551547A, “Biocidal 2-aryl-1, 3-cyclopentanedione enol ester compounds” (Union Carbide Corporation, priority 1983, dated 1985)
≈ marks a conversion by molar mass, not a printed value.

What was measured:
Corn = test: Post-emergent herbicidal test, corn; type: in vivo; set-up: key: 1: no perceptible injury; 2: intermediate degrees of injury; 3: intermediate degrees of injury; 4: intermediate degrees of injury; 5: the plant was dead; conditions: 2500 parts per million, after ten days; for Post-emergent Herbicidal, Corn: Table II
Experimental: (§1) Suspensions of the test compounds were prepared by dissolving one gram of compound in 50 milliliters of acetone in which had been dissolved 0.1 gram (10 percent of the weight of compound) of an alkylphenoxyethanol sufactant, as an emulsifying or dispersing agent. The resulting solution was mixed into 160 milliliters of water to give roughly 200 milliliters of a suspension containing the compound in finely divided form. The thus prepared stock suspension contained 0.5 percent by weight of compound. The test concentrations employed in the tests described below were obtained by diluting the stock suspension with water. The test procedures were as follows:
(§2) Experiments were also conducted to determine the phytotoxicity of representative compositions with respect to healthy fresh plants. Solutions of the compounds were prepared as described above to provide a concentration of 2500 parts per million of the test compound. The test plants were sprayed in accordance with the procedure described above for the Mite Foliage Spray Test so as to deliver approximately 100 milliliters of test solutions to the leaves of each plant tested. The sprayed plants and controls were set aside for approximately one hour to allow the solutions to dry and were then placed in the greenhouse. After ten days the plants were visually inspected to determine the extent of foliage injury. A rating of 1 indicates no perceptible injury; 5 indicates the plant was dead and ratings of 2, 3 and 4 indicate intermediate degrees of injury based upon the number and extent to which leaves were injured.

[1] = tested on: egg of the two-spotted mite; test: Mite Ovicide Test (eggs); type: in vivo, Tetranychus urticae (Koch); set-up: key to Miticidal, Egg: A: Excellent Control; B: Partial Control; No Control; conditions: for Miticidal, Egg: Table II, unhatched eggs after four days
Experimental: Suspensions of the test compounds were prepared by dissolving one gram of compound in 50 milliliters of acetone in which had been dissolved 0.1 gram (10 percent of the weight of compound) of an alkylphenoxyethanol sufactant, as an emulsifying or dispersing agent. The resulting solution was mixed into 160 milliliters of water to give roughly 200 milliliters of a suspension containing the compound in finely divided form. The thus prepared stock suspension contained 0.5 percent by weight of compound. The test concentrations employed in the tests described below were obtained by diluting the stock suspension with water. The test procedures were as follows: The test organism was the egg of the two-spotted mite (Tetranychus urticae (Koch)), as obtained from adults reared on […] bean plants under controlled conditions of 80±5° F. and 50±5 percent relative humidity. Heavily infested leaves from a stock culture were placed on the primary leaves of two bean plants six to eight inches in height growing in a two-and-a-half inch clay pot. Females were allowed to oviposit for a period of 48 hours and the leaves of the infested plants were dipped in a solution containing 800 parts of tetraethyl pyrophosphate per million parts of water in order to destroy the reproductory forms and thus prevent further egg laying. […] The plants were allowed to dry thoroughly. The test compounds were formulated by diluting the stock suspension with water to give a suspension containing varying amounts of test compound per million parts of final formulation. The potted plants (one pot per compound) were placed on a revolving turntable and sprayed with 100-110 milliliters of test compound formulation by use of a DeVilbis spray gun set at 40 spig. air pressure. This application which lasted 30 seconds, was sufficient to wet the plants to run-off. As a control, 100-110 milliliters of a water solution containing acetone and emulsifier in the same concentrations as the test compound formulation, but containing no test compound, were also sprayed on plants infested with eggs. The sprayed plants were held at 80±5° F. and 50±5 percent relative humidity for four days, after which a microscopic examination was made of unhatched (dead) and hatched (living) eggs. In these tests the pesticidal activity of the compounds against mites and mite eggs was rated as follows: Tests were conducted in accordance with the procedures given at pages 17 to 21 supra. The results are expressed in the same manner as used in Table II, except with respect to miticidal activity. For mite adult and mite egg comparison purposes, results are given in parts per million (ppm) required for a 50 percent kill of mites or eggs, respectively.

Bean = test: Post-emergent herbicidal test, bean; type: in vivo; set-up: key: 1: no perceptible injury; 2: intermediate degrees of injury; 3: intermediate degrees of injury; 4: intermediate degrees of injury; 5: the plant was dead; conditions: 2500 parts per million, after ten days; for Post-emergent Herbicidal, Bean: Table II
Experimental: as §1, §2

Mustard = test: Preliminary herbicide seed germination test (pre-emergent), mustard; type: in vivo, Brassica pincea var. foliosa (Florida broadleaf); set-up: key: 5: no seedling emerged; 4: few seedlings emerged and/or very severe stunting; 3: moderate reduction in stand and/or moderate stunting.; 2: very slight reduction in stand and/or slight stunting; 1: no injury, seedlings appear no different with respect to stand or growth than untreated controls; conditions: ten to twelve days after application
Experimental: as §1
(§3) The following seeds were used in this test:
Mustard--Brassica pincea var. foliosa (Florida broadleaf)
(§4) Two […] mixtures were prepared as follows:
(§5) Each of the above mixtures was rolled separately in 5 gallon containers for approximately one-half hour on ball mill to insure uniform mixing of seeds and soil. For each compound four 3-inch pots were filled with soil to within 11/2 inches of top of pots. To two of these pots were added 70 cc. of Mixture I. To the remaining 2 pots were added 70 cc. of Mixture II. The seed-soil mixture was tamped firmly, and the pots were removed to the greenhouse and watered lightly. About 2 hours after planting, 25 milliliters of the test formulation were added to one pot containing Mixture I and one pot containing Mixture II. An equal volume of a water solution containing acetone and an emulsifier in the same concentration as the herbicidal mixture but without the candidate herbicide was also added to each of the soil-seed mixtures. These pots are used as check or control units. The test compounds were formulated by diluting the stock suspension with water to obtain the desired concentration of the compound in parts per million of the final formulation. Each compound was tested at the same concentration. […] Ratings were made according to the following designations: […]

Tomato = test: Post-emergent herbicidal test, tomato; type: in vivo; set-up: key: 1: no perceptible injury; 2: intermediate degrees of injury; 3: intermediate degrees of injury; 4: intermediate degrees of injury; 5: the plant was dead; conditions: 2500 parts per million, after ten days; for Post-emergent Herbicidal, Tomato: Table II
Experimental: as §1, §2

Soybean = test: Post-emergent herbicidal test, soybean; type: in vivo; set-up: key: 1: no perceptible injury; 2: intermediate degrees of injury; 3: intermediate degrees of injury; 4: intermediate degrees of injury; 5: the plant was dead; conditions: 2500 parts per million, after ten days; for Post-emergent Herbicidal, Soybean: Table II
Experimental: as §1, §2

[2] = tested on: Red root pigweed (Amaranthus); test: Preliminary herbicide seed germination test (pre-emergent), red root pigweed; type: in vivo, Amaranthus retroflexus; set-up: key: 5: no seedling emerged; 4: few seedlings emerged and/or very severe stunting; 3: moderate reduction in stand and/or moderate stunting.; 2: very slight reduction in stand and/or slight stunting; 1: no injury, seedlings appear no different with respect to stand or growth than untreated controls; conditions: ten to twelve days after application
Experimental: as §1, §3
Red root pigweed--Amaranthus retroflexus
as §4, §5

Crabgrass = test: Preliminary herbicide seed germination test (pre-emergent), crabgrass; type: in vivo, Digitaria sanguinalis; set-up: key: 5: no seedling emerged; 4: few seedlings emerged and/or very severe stunting; 3: moderate reduction in stand and/or moderate stunting.; 2: very slight reduction in stand and/or slight stunting; 1: no injury, seedlings appear no different with respect to stand or growth than untreated controls; conditions: ten to twelve days after application
Experimental: as §1, §3
Crabgrass--Digitaria sanguinalis
as §4, §5

CCCCC(CC)C(=O)OC1=C(c2ccc(C)cc2C)C(=O)C2CCCCC12 (stereo not shown) [Compound 26, 3-(2-ethylhexanoyloxy)-2-(2',4'-dimethylphenyl)-4,5,6,7,8,9-hexahydro-2-indenone]
Post-emergent Herbicidal, Corn (Corn): 5
Miticidal, Egg [1]: A
Post-emergent Herbicidal, Bean (Bean): 2
Pre-emergent Herbicidal, Mustard (Mustard; Table II): 1
Post-emergent Herbicidal, Tomato (Tomato): 2
Post-emergent Herbicidal, Soybean (Soybean): 2
Pre-emergent Herbicidal, Amaranthus ([2]; Table II): 1
Pre-emergent Herbicidal, Crabgrass (Crabgrass; Table II): 1

CCCCCCCCCCCCCCCC(=O)OC1=C(c2cc(C)ccc2C)C(=O)CC1 [Compound 14]
Post-emergent Herbicidal, Corn (Corn): 1
Miticidal, Egg [1]: A
Post-emergent Herbicidal, Bean (Bean): 2
Pre-emergent Herbicidal, Mustard (Mustard; Table II): 1
Post-emergent Herbicidal, Tomato (Tomato): 3
Post-emergent Herbicidal, Soybean (Soybean): 3
Pre-emergent Herbicidal, Amaranthus ([2]; Table II): 1
Pre-emergent Herbicidal, Crabgrass (Crabgrass; Table II): 1

CC(=O)OC1=C(c2ccccc2C)C(=O)C2CCCCC12 (stereo not shown) [Compound 19, 3-acetoxy-2-(2'-methylphenyl)-4,5,6,7,8,9-hexahydro-2-indenone]
Post-emergent Herbicidal, Corn (Corn): 5
Miticidal, Egg [1]: A
Post-emergent Herbicidal, Bean (Bean): 3
Pre-emergent Herbicidal, Mustard (Mustard; Table II): 3
Post-emergent Herbicidal, Tomato (Tomato): 2
Post-emergent Herbicidal, Soybean (Soybean): 3
Pre-emergent Herbicidal, Amaranthus ([2]; Table II): 4
Pre-emergent Herbicidal, Crabgrass (Crabgrass; Table II): 3

CCCCCCCCCCCCCCCC(=O)OC1=C(c2cc(C)ccc2C)C(=O)C2CCCCC12 (stereo not shown) [Compound 33]
Post-emergent Herbicidal, Corn (Corn): 1
Miticidal, Egg [1]: A
Post-emergent Herbicidal, Bean (Bean): 1
Pre-emergent Herbicidal, Mustard (Mustard; Table II): 1
Post-emergent Herbicidal, Tomato (Tomato): 1
Post-emergent Herbicidal, Soybean (Soybean): 1
Pre-emergent Herbicidal, Amaranthus ([2]; Table II): 1
Pre-emergent Herbicidal, Crabgrass (Crabgrass; Table II): 1

CCCCC(CC)C(=O)OC1=C(c2ccc(Cl)cc2Cl)C(=O)CC1 (stereo not shown) [Compound 5]
Post-emergent Herbicidal, Corn (Corn): 3
Miticidal, Egg [1]: A
Post-emergent Herbicidal, Bean (Bean): 3
Pre-emergent Herbicidal, Mustard (Mustard; Table II): 1
Post-emergent Herbicidal, Tomato (Tomato): 2
Post-emergent Herbicidal, Soybean (Soybean): 2
Pre-emergent Herbicidal, Amaranthus ([2]; Table II): 1

CCCCC(CC)C(=O)OC1=C(c2cc(C)ccc2C)C(=O)CC1 (stereo not shown) [Compound 13]
Post-emergent Herbicidal, Corn (Corn): 2
Miticidal, Egg [1]: A
Post-emergent Herbicidal, Bean (Bean): 2
Pre-emergent Herbicidal, Mustard (Mustard; Table II): 1
Post-emergent Herbicidal, Tomato (Tomato): 2
Post-emergent Herbicidal, Soybean (Soybean): 3
Pre-emergent Herbicidal, Amaranthus ([2]; Table II): 1
Pre-emergent Herbicidal, Crabgrass (Crabgrass; Table II): 1

Cc1ccccc1C1=C(OC(=O)C(C)(C)C)C2CCCCC2C1=O (stereo not shown) [drawing 24]
Post Emergent Herbicidal, Corn (Corn; Table III): 5
LC50 ([1]; Tetranychus urticae, Table III, ppm required for a 50 percent kill of eggs, read-out: Miticidal LD50, Egg): 16 µg/mL (≈ 49 µM)
Post Emergent Herbicidal, Bean (Bean; Table III): 2
Pre-emergent Herbicidal, Mustard (Mustard; Table III): 3
Post Emergent Herbicidal, Tomato (Tomato; Table III): 1
Post Emergent Herbicidal, Soybean (Soybean; Table III): 3
Pre-emergent Herbicidal, Amaranthus ([2]; Table III): 2
Pre-emergent Herbicidal, Crabgrass (Crabgrass; Table III): 3
